Measured values published in patent US20050148627A1, “Benzopyran compounds for use in the treatment and prevention of inflammation related conditions” (priority 2003, published 2005).
Where “and” joins values, the source holds several entries; their conditions need not be identical. Equal values may be shown once.

Target: COX-1 (Homo sapiens, UniProt P23219)
Assay: biochemical

COX-1, sequence (P23219 24-599): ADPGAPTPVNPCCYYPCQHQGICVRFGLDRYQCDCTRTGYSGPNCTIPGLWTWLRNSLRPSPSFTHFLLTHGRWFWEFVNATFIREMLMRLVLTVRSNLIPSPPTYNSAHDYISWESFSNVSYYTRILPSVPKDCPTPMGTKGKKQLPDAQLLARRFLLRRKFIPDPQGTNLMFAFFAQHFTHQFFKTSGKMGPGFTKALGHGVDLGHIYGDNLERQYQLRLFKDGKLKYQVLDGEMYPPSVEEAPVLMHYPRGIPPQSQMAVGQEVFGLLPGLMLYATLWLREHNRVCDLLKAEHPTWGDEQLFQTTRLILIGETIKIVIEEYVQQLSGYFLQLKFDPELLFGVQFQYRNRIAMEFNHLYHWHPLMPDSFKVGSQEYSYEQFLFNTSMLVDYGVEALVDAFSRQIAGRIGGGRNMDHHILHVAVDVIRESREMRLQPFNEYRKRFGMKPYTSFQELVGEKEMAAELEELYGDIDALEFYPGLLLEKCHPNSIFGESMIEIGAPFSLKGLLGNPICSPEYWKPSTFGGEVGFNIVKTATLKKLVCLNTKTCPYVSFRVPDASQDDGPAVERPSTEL

| SMILES | IC50 |
| --- | --- |
| CC(C)(C)CCc1cc2c(cc1Cl)C=C(C(=O)O)C(C(F)(F)F)O2 (stereo not shown) [Example 9b, 6-chloro-7-(3,3-dimethylbutyl)-2-(trifluoromethyl)-2H-chromene-3-carboxylic acid] | 19 µM and 17.9 µM |
| O=C(O)C1=Cc2ccc(Cc3ccc(F)cc3)cc2OC1C(F)(F)F (stereo not shown) [Example 9bb, 7-(4-fluorobenzyl)-2-(trifluoromethyl)-2H-chromene-3-carboxylic acid] | 37.4 µM |
| CC(C)c1cc2c(cc1Cl)C=C(C(=O)O)C(C(F)(F)F)O2 (stereo not shown) [Example 9f, 6-chloro-7-isopropyl-2-(trifluoromethyl)-2H-chromene-3-carboxylic acid] | 147 µM and > 100 µM |
| CC(C)c1cc2c(cc1Cl)C(Cl)=C(C(=O)O)C(C(F)(F)F)O2 (stereo not shown) [Example 9g, 4,6-dichloro-7-isopropyl-2-(trifluoromethyl)-2H-chromene-3-carboxylic acid] | 24.2 µM and 25.1 µM |
| O=C(O)C1=Cc2cc(Cl)c(CCC3CCCCC3)cc2OC1C(F)(F)F (stereo not shown) [Example 9i, 6-chloro-7-(2-cyclohexylethyl)-2-(trifluoromethyl)-2H-chromene-3-carboxylic acid] | 12.7 µM and 12.5 µM |
| O=C(O)C1=Cc2cc(Cl)c(CCc3ccc(Cl)cc3)cc2OC1C(F)(F)F (stereo not shown) [Example 9j, 6-chloro-7-[2-(4-chlorophenyl)ethyl]-2-(trifluoromethyl)-2H-chromene-3-carboxylic acid] | 11.4 µM and 14 µM |
| O=C(O)C1=Cc2cc(Cl)c(Cc3ccccc3)cc2OC1C(F)(F)F (stereo not shown) [Example 9k, 7-benzyl-6-chloro-2-(trifluoromethyl)-2H-chromene-3-carboxylic acid] | 0.603 µM and 2.17 µM |
| O=C(O)C1=Cc2cc(Cl)c(Cc3ccccc3Cl)cc2OC1C(F)(F)F (stereo not shown) [Example 9n, 6-chloro-7-(2-chlorobenzyl)-2-(trifluoromethyl)-2H-chromene-3-carboxylic acid] | 0.425 µM |
| O=C(O)C1=Cc2cc(Cl)c(Cc3ccc(Cl)cc3)cc2OC1C(F)(F)F (stereo not shown) [Example 9o, 6-chloro-7-(4-chlorobenzyl)-2-(trifluoromethyl)-2H-chromene-3-carboxylic] | 9.67 µM and 12.1 µM |
| Cc1cc(Cl)ccc1Cc1cc2c(cc1Cl)C=C(C(=O)O)C(C(F)(F)F)O2 (stereo not shown) [Example 9p, 6-chloro-7-(4-chloro-2-methylbenzyl)-2-(trifluoromethyl)-2H-chromene-3-carboxylic acid] | 1.51 µM |
| COc1ccc(Cc2cc3c(cc2Cl)C=C(C(=O)O)C(C(F)(F)F)O3)cc1 (stereo not shown) [Example 9q, 6-chloro-7-(4-methoxybenzyl)-2-(trifluoromethyl)-2H-chromene-3-carboxylic acid] | 99.9 µM |
| COc1ccc(Cc2cc3c(cc2Cl)C=C(C(=O)O)C(C(F)(F)F)O3)cc1Cl (stereo not shown) [Example 9r, 6-chloro-7-(3-chloro-4-methoxybenzyl)-2-(trifluoromethyl)-2H-chromene-3-carboxylic acid] | 80.8 µM |
| Cc1ccc(Cc2cc3c(cc2Cl)C=C(C(=O)O)C(C(F)(F)F)O3)c(C)c1 (stereo not shown) [Example 9s, 6-chloro-7-(2,4-dimethylbenzyl)-2-(trifluoromethyl)-2H-chromene-3-carboxylic acid] | 5.85 µM and 5.72 µM |
| Cc1cc(C)c(Cc2cc3c(cc2Cl)C=C(C(=O)O)C(C(F)(F)F)O3)cc1Cl (stereo not shown) [Example 9t, 6-chloro-7-(5-chloro-2,4-dimethylbenzyl)-2-(trifluoromethyl)-2H-chromene-3-carboxylic acid] | 5.5 µM |
| Cc1ccc(Cc2cc3c(cc2Cl)C=C(C(=O)O)C(C(F)(F)F)O3)c(C)c1Cl (stereo not shown) [Example 9u, 6-chloro-7-(3-chloro-2,4-dimethylbenzyl)-2-(trifluoromethyl)-2H-chromene-3-carboxylic acid] | 5.52 µM |
| COc1cccc(Cc2ccc3c(c2)OC(C(F)(F)F)C(C(=O)O)=C3)c1 (stereo not shown) [Example 9w, 7-(3-methoxybenzyl)-2-(trifluoromethyl)-2H-chromene-3-carboxylic acid] | > 100 µM |
| Cc1ccc(Cc2cc3c(cc2Cl)C=C(C(=O)O)C(C(F)(F)F)O3)cc1 (stereo not shown) [Example 9x, 6-chloro-7-(4-methylbenzyl)-2-(trifluoromethyl)-2H-chromene-3-carboxylic acid] | 5.59 µM and 10.3 µM |
| Cc1ccc(Cc2cc3c(cc2Cl)C=C(C(=O)O)C(C(F)(F)F)O3)cc1Cl (stereo not shown) [Example 9y, 6-chloro-7-(3-chloro-4-methylbenzyl)-2-(trifluoromethyl)-2H-chromene-3-carboxylic acid] | 4.69 µM |
| O=C(O)C1=Cc2cc(Cl)c(Cc3ccc(F)c(F)c3)cc2OC1C(F)(F)F (stereo not shown) [Example 9z, 6-chloro-7-(3,4-difluorobenzyl)-2-(trifluoromethyl)-2H-chromene-3-carboxylic acid] | 27.4 µM |
| O=C(O)C1=Cc2cc(Cl)c(C(=O)c3ccccc3)cc2OC1C(F)(F)F (stereo not shown) [Example 10, 7-benzoyl-6-chloro-2-(trifluoromethyl)-2H-chromene-3-carboxylic acid] | < 0.137 µM |
| O=C(O)C1=Cc2ccc(C(=O)c3cccnc3)cc2OC1C(F)(F)F (stereo not shown) [Example 11, 7-(pyridin-3-ylcarbonyl)-2-(trifluoromethyl)-2H-chromene-3-carboxylic acid] | > 100 µM |
| O=C(O)C1=Cc2ccc(-c3ccco3)cc2OC1C(F)(F)F (stereo not shown) [Example 12, 7-(2-furyl)-2-(trifluoromethyl)-2H-chromene-3-carboxylic acid] | > 100 µM |
| O=C(O)C1=Cc2c(cc(Cc3ccccc3)c(Cl)c2Cl)OC1C(F)(F)F (stereo not shown) [Example 13, 7-benzyl-5,6-dichloro-2-(trifluoromethyl)-2H-chromene-3-carboxylic acid] | 4.18 µM and 2.79 µM |
| CCCC(=O)NCc1cc2c(cc1Cl)C=C(C(=O)O)C(C(F)(F)F)O2 (stereo not shown) [Example 16, 7-[(butyrylamino)methyl]-6-chloro-2-(trifluoromethyl)-2H-chromene-3-carboxylic acid] | > 100 µM |
| COc1cc2c(c(Cl)c1Cl)OC(C(F)(F)F)C(C(=O)O)=C2 (stereo not shown) [Example 19, 7,8-dichloro-6-methoxy-2-(trifluoromethyl)-2H-chromene-3-carboxylic acid] | 82.1 µM and 34.7 µM |

Now from value to molecule:

| IC50 | SMILES |
| --- | --- |
| < 0.137 µM | Cc1c(Cc2ccccc2)c(Cl)cc2c1OC(C(F)(F)F)C(C(=O)O)=C2 (stereo not shown) [Example 14a, 7-benzyl-6-chloro-8-methyl-2-(trifluoromethyl)-2H-chromene-3-carboxylic acid] |
| < 0.137 µM | Cc1c(Cc2ccccc2)ccc2c1OC(C(F)(F)F)C(C(=O)O)=C2 (stereo not shown) [Example 14b, 7-benzyl-8-methyl-2-(trifluoromethyl)-2H-chromene-3-carboxylic acid] |
| > 100 µM and 455 µM | O=C(O)C1=Cc2cc(O)cc(Cl)c2OC1C(F)(F)F (stereo not shown) [Example 17b, 8-chloro-6-hydroxy-2-(trifluoromethyl)-2H-chromene-3-carboxylic acid] |
| 3.58 µM and 0.623 µM | O=C(O)C1=Cc2cc(OCC(F)(F)F)cc(Cl)c2OC1C(F)(F)F (stereo not shown) [Example 17c, 8-chloro-6-(2,2,2-trifluoroethoxy)-2-(trifluoromethyl)-2H-chromene-3-carboxylic acid] |
| 0.365 µM and < 0.137 µM | O=C(O)C1=Cc2cc(OCc3ccccc3)cc(Cl)c2OC1C(F)(F)F (stereo not shown) [Example 17d, 6-(benzyloxy)-8-chloro-2-(trifluoromethyl)-2H-chromene-3-carboxylic acid] |
| < 0.137 µM | CCCCCCOc1cc(Cl)c2c(c1)C=C(C(=O)O)C(C(F)(F)F)O2 (stereo not shown) [Example 17e, 8-chloro-6-(hexyloxy)-2-(trifluoromethyl)-2H-chromene-3-carboxylic acid] |
| 11.8 µM | CCCOc1cc(Cl)c2c(c1)C=C(C(=O)O)C(C(F)(F)F)O2 (stereo not shown) [Example 17f, 8-chloro-6-propoxy-2-(trifluoromethyl)-2H-chromene-3-carboxylic acid] |
| 0.5 µM and 0.392 µM | O=C(O)C1=Cc2cc(OC3CCCCC3)cc(Cl)c2OC1C(F)(F)F (stereo not shown) [Example 17g, 8-chloro-6-(cyclohexyloxy)-2-(trifluoromethyl)-2H-chromene-3-carboxylic acid] |
| < 0.137 µM | COc1cc(Cl)c2c(c1Cl)C=C(C(=O)O)C(C(F)(F)F)O2 (stereo not shown) [Example 18a, 5,8-dichloro-6-methoxy-2-(trifluoromethyl)-2H-chromene-3-carboxylic acid] |
| < 0.137 µM | COc1c(Cl)c(Cl)c2c(c1Cl)C=C(C(=O)O)C(C(F)(F)F)O2 (stereo not shown) [Example 20a, 5,7,8-trichloro-6-methoxy-2-(trifluoromethyl)-2H-chromene-3-carboxylic acid] |
| 19.2 µM and 9.68 µM | O=C(O)C1=Cc2cc(OC(F)(F)F)cc(C#Cc3ccccc3)c2OC1C(F)(F)F (stereo not shown) [Example 21c, 8-(phenylethynyl)-6-(trifluoromethoxy)-2-(trifluoromethyl)-2H-chromene-3-carboxylic acid] |
| 0.182 µM | CC#Cc1cc(OC(F)(F)F)cc2c1OC(C(F)(F)F)C(C(=O)O)=C2 (stereo not shown) [Example 21d, 8-prop-1-ynyl-6-(trifluoromethoxy)-2-(trifluoromethyl)-2H-chromene-3-carboxylic acid] |
| 6.52 µM and 3.06 µM | CCCC#Cc1cc(OC(F)(F)F)cc2c1OC(C(F)(F)F)C(C(=O)O)=C2 (stereo not shown) [Example 21e, 8-pent-1-ynyl-6-(trifluoromethoxy)-2-(trifluoromethyl)-2H-chromene-3-carboxylic acid] |
| < 0.137 µM and 0.0312 µM | C#Cc1cc(OC(F)(F)F)cc2c1OC(C(F)(F)F)C(C(=O)O)=C2 (stereo not shown) [Example 21f, 8-ethynyl-6-(trifluoromethoxy)-2-(trifluoromethyl)-2H-chromene-3-carboxylic acid] |
| 24.4 µM and 21.6 µM and 9.14 µM and 10.7 µM | CCc1cc(OC(F)(F)F)cc2c1OC(C(F)(F)F)C(C(=O)O)=C2 (stereo not shown) [Example 21g, 8-ethyl-6-(trifluoromethoxy)-2-(trifluoromethyl)-2H-chromene-3-carboxylic acid] |
| > 100 µM and 217 µM | CC(C)Cc1cc(OC(F)(F)F)cc2c1OC(C(F)(F)F)C(C(=O)O)=C2 (stereo not shown) [Example 21h, 8-isobutyl-6-(trifluoromethoxy)-2-(trifluoromethyl)-2H-chromene-3-carboxylic acid] |
| 40.4 µM | CCCCCc1cc(OC(F)(F)F)cc2c1OC(C(F)(F)F)C(C(=O)O)=C2 (stereo not shown) [Example 21j, 8-pentyl-6-(trifluoromethoxy)-2-(trifluoromethyl)-2H-chromene-3-carboxylic acid] |
| < 0.137 µM | C=Cc1cc(OC(F)(F)F)cc2c1OC(C(F)(F)F)C(C(=O)O)=C2 (stereo not shown) [Example 21n, 6-(trifluoromethoxy)-2-(trifluoromethyl)-8-vinyl-2H-chromene-3-carboxylic acid] |
